Results: patent publication US12396966B2, “Pharmaceutical compositions and oral dosage forms of ketamine derivatives” (XWPHARMA LTD., priority 2021, dated 2025)

Assays:
[1] = humans; cited from earlier work
[2] = Preclinical pharmacokinetic studies; type: in vivo; conditions: dogs
[3] = Preclinical pharmacokinetic studies: dose proportionality and repeated dosing; type: in vivo
[4] = Preclinical pharmacokinetic studies; type: in vivo; conditions: monkeys
CYP2D6 = CYP2D6 (Homo sapiens, UniProt P10635); experiment: Preclinical studies: metabolism of compound (39) to release esketamine; type: in vitro ADME
[5] = Two-stage dissolution of tablets (0.1N HCl 1 hour, then 50 mM acetate buffer pH 4.5); type: physicochemical; conditions: FIG. 2
Experimental: The two-stage dissolution profiles were obtain as described in Example 5.
A two-stage dissolution apparatus was used to measure the dissolution profile of the tablets.
In the first stage, the tablets were immersed in 0.1N HCl a dissolution medium for 1 hour.
The dissolution medium was then immediately charged to a 50 mM acetate buffer at pH 4.5 immediately following 1 hour sampling via addition of 100 mM acetate buffer with appropriate pH and continued through 18 hours.
Two-stage dissolution profiles for the tablets were obtained using a USP 1 dissolution apparatus. The tablets were first added to 500 mL of a 0.1N hydrochloric acid solution and agitated at 100 RPM for 1 hour at 37° C. Samples (1 mL) were withdrawn at 0, 0.5 and 1 hours. The acid solution was then replaced with 1,000 mL of a 50 mM pH 4.5 acetate buffer solution and the tablets agitated at 100 RPM for up to 24 hours at 37° C. Samples (1 mL) were withdrawn at 1.5, 2, 3, 4, 6, 8, 12, 16, 20, and 24 hours. Solution samples were withdrawn at intervals and the concentration of Compound (39) was measured using high pressure liquid chromatography mass spectroscopy.

[6] = Preclinical pharmacokinetic studies; type: in vivo; conditions: rats
CYP3A4 = CYP3A4 (Homo sapiens, UniProt P08684); experiment: Preclinical studies: metabolism of compound (39) to release esketamine; type: in vitro ADME
CYP2C19 = CYP2C19 (Homo sapiens, UniProt P33261); experiment: as above; type: in vitro ADME
[7] = Preclinical pharmacokinetic studies; type: in vivo; conditions: mice

CYP2C19, sequence (P33261 whole entry, species assumed): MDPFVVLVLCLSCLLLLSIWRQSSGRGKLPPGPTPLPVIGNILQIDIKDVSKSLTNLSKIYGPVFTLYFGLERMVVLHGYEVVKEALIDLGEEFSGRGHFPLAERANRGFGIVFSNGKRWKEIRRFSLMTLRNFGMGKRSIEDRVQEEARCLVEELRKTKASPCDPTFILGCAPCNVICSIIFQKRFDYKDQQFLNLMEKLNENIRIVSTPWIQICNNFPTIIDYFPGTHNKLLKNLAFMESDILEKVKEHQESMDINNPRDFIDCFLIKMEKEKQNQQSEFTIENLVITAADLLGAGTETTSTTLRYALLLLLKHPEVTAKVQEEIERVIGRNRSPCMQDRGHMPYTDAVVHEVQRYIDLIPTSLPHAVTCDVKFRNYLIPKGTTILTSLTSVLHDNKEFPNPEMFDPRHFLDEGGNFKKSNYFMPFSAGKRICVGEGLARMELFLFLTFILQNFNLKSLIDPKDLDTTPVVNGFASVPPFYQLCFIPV
CYP3A4, sequence (P08684 whole entry, species assumed): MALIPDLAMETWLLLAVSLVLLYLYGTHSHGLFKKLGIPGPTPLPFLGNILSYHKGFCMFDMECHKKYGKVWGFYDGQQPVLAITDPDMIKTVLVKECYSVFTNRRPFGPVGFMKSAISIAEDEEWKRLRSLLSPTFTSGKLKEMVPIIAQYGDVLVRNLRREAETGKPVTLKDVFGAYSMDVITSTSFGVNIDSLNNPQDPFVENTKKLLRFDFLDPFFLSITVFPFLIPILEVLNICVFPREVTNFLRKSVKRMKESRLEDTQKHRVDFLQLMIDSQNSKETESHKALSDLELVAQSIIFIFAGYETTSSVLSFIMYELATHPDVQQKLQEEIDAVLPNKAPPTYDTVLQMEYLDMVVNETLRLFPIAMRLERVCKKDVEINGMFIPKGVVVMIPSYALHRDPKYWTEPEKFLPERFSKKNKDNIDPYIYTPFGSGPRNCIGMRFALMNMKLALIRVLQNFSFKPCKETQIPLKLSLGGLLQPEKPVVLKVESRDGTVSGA
CYP2D6, sequence (P10635 whole entry, species assumed): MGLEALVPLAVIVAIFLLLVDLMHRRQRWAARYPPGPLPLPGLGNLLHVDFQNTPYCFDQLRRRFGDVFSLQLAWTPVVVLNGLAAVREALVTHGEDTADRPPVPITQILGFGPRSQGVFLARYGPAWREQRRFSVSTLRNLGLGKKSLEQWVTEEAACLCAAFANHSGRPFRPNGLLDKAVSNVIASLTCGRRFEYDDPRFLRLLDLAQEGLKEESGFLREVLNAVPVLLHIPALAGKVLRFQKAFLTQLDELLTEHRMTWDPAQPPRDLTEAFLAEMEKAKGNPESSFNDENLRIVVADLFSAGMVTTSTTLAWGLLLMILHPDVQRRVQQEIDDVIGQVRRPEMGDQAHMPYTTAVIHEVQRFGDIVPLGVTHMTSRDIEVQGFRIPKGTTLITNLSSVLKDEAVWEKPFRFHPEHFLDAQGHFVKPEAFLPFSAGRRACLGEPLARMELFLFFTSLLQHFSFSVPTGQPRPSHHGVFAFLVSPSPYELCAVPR

SMILES: CNC1(c2ccccc2Cl)CCCCC1=O (stereo not drawn) [Ketamine, 2-(2-chlorophenyl)-2-(methylamino)cyclohexan-one]
- oral bioavailability (% F) [1]: about 20%

SMILES: CC(C)[C@@H](C(=O)OCOC(=O)N(C)[C@]1(c2ccccc2Cl)CCCCC1=O)N(C)C [compound (39), ((((S)-1-(2-chlorophenyl)-2-oxocyclohexyl)(methyl)carbamoyl)oxy)methyl dimethyl-L-valinate]
- absorption and conversion to esketamine [2]: rapid absorption and conversion to esketamine
- accumulation of compound (39) and its metabolites ([3]; following repeated dosing): not observed
- systemic exposure, expressed as AUC: dose proportionality ([3]; for compound (39), esketamine, and noresketamine): less than to greater than dose proportional
- absorption and conversion to esketamine [4]: rapid absorption and conversion to esketamine
- metabolism by CYP2D6 to release esketamine (CYP2D6): metabolized
- effect of sodium lauryl sulfate on solubility of compound (39) ([5]; acid stage (0.1N HCl), tablets with and without sodium lauryl sulfate): reduces the solubility
- dissolution rate ([5]; pH 4.5, tablets with and without sodium lauryl sulfate): approximately independent of the amount of sodium lauryl sulfate
- absorption and conversion to esketamine [6]: rapid absorption and conversion to esketamine
- metabolism by CYP3A4 to release esketamine (CYP3A4): metabolized
- metabolism by CYP2C19 to release esketamine (CYP2C19): metabolized
- absorption and conversion to esketamine [7]: rapid absorption and conversion to esketamine
